Where “and” joins values, the source holds several entries; their conditions need not be identical. Identical values can stand only once.
Columns and labels:
[1] = system: transgenic tobacco plants expressing SEQ ID NO: 16; assay: Glass house spray test on tobacco, percent damage; format: in vivo; settings: for tolerance compared with w/t and SEQ ID NO: 1 plants: 200 and 500 g/ha, 14 DAT, several events
Excerpt: (§1) Three transgenic populations of about forty tobacco plants and comprising, a glucosyl transferase gene encoding either zmBX8 (SEQ ID NO 2) or zmBX9 (SEQ ID NO 1) were thus produced. A sub-set of about 30 plants were selected on the basis of similar size from each population for spray testing. The plants were then sprayed with 30 g/ha of Compound VI. VI was mixed in water with 0.2-0.25% X-77 surfactant and sprayed from a boom on a suitable track sprayer moving at 2 mph with the nozzle about 2 inches from the plant tops. Spray volume was 200 l/ha. Plants were assessed for damage and scored at 7 and 14 days after treatment (DAT).
In a further example, Zea mays BX8 or BX9 or orthologues of BX8/9, are altered to carry amino acid variants at various positions which increase tolerance to the alcohol and aminal PSII herbicides as described in the example above. DNA sequences that encode these polypeptides (optimized for tobacco or, optionally, codon optimized according to a target crop such as soybean) were prepared for tobacco transformation as described in example 10. […] Transgenic tobacco populations expressing SEQ ID NOs 16 and 17 were generated alongside a population expressing the parental zmBX9 sequence (SEQ ID 1). […] Plants were assessed for damage and scored at 14 days after treatment (DAT). The results are depicted in Table 19 and also in FIG. 6.

[2] = biological target: T1, Zea mays bx8 glucosyl transferase (SEQ ID 2) (Zea mays, UniProt Q8W2B7); assay: LC/MS glucosyl transferase assay (glucoside peak area), purified enzyme; format: biochemical; settings: for integrated peak area of beta-glucoside product: LC/MS, about 60 min, ~15 pmol enzyme, relative quantification only
T1 construct: His tag; made in house
T1 sequence (Q8W2B7 1-459): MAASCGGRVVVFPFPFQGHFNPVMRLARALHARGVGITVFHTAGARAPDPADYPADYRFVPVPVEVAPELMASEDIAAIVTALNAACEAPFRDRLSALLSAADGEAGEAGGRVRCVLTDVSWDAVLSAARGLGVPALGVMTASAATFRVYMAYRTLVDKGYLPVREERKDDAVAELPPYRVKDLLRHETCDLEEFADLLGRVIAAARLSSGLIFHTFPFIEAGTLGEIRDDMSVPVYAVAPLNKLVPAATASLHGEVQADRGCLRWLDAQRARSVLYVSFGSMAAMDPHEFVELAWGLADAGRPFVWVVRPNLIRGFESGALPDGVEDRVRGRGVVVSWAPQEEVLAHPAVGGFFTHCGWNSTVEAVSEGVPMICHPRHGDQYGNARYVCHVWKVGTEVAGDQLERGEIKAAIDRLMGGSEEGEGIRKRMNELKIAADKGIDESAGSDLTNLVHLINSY
Procedure: In an alternative method for assaying the various enzymes, the test glucosyl transferase enzyme is reacted with substrates exactly as above except that the assay is stopped by adding an equal volume of acetonitrile. Alternatively 50 or 100 μl samples from assay reactions are added to 500 μl ethyl acetate to stop the reaction. In this case samples are then vortexed and 400 μl of the ethyl acetate partition removed, dried down, and resuspended in 100 μl 80:20 acetonitrile/water. The formation of product gluco side and/or disappearance of substrate test herbicide is then monitored directly by LC/MS. Samples are analyzed by LC-MS using an Agilent 1290 liquid chromatography system and Thermo Q-Exactive mass spectrometer. The chromatography is achieved on a Waters Acquity C18 BEH (50×2.1 mm) 1.7 μm particle size column, using a 6 minute gradient run of Water (0.2% formic acid) and Acetonitrile. The Q-Exactive is operated in positive ionisation electrospray mode, using Full scan-AIF mode, at 35,000 resolution, between 100-800 m/z. All analytes are identified from the full scan data to within at least 5 ppm accuracy of their predicted pseudo-molecular ion [M+H]^+ m/z value. In order to obtain quantitative data standard curves are run using herbicides and herbicide glucosides synthesized as standards. Where these synthetic glucosides were not available the LC/MS assay could only be used to provide relative data.
DNA sequences, optimized for E. coli codon usage, were cloned, expressed and the various proteins purified and assayed as described in the foregoing examples. Using the UDP assay (as described in examples 1, 3 and 6) the data obtained from the Zea mays bx8 w/t protein and its variants was noisy due to relatively high background rates in DMSO reagent blanks. The values reported in the table 15 were thus monitored by LC/MS as described in example 1.
DNA sequences, optimized for E. coli codon usage, are cloned, expressed and the various proteins purified and assayed as described in the foregoing examples. As in Example 4, a DNA sequence is designed and synthesized to express the N-terminally his tagged Zea mays bx8 (SEQ ID No: 2). However in this case the DNA sequence is modified to further include a peptide insertion “GIGVD”=SEQ ID No: 102 in place of D442 of SEQ ID No: 2 and as indicated in Table 2. The resultant modified sequence is cloned into the E. coli expression plasmid pET24a using 5′ NdeI and 3′ XhoI restriction sites, expressed, purified and assayed. […] In LC/MS assays run for 30 min and similar to those described in example 7 the integrated peak areas for glucoside product from herbicide V from the w/t Zea mays bx8 SEQ ID NO:2 was 1.5E6 units whereas the corresponding number for the equivalent protein containing the GIGVD peptide insert was 2.5E6 units. […]

[3] = system: transgenic tobacco plants expressing SEQ ID NO: 17; assay: Glass house spray test on tobacco, percent damage; format: in vivo; settings: for tolerance compared with w/t and SEQ ID NO: 1 plants: 200 and 500 g/ha, 14 DAT, several events
Excerpt: as §1
In a further example, Zea mays BX8 or BX9 or orthologues of BX8/9, are altered to carry amino acid variants at various positions which increase tolerance to the alcohol and aminal PSII herbicides as described in the example above. DNA sequences that encode these polypeptides (optimized for tobacco or, optionally, codon optimized according to a target crop such as soybean) were prepared for tobacco transformation as described in example 10. […] Transgenic tobacco populations expressing SEQ ID NOs 16 and 17 were generated alongside a population expressing the parental zmBX9 sequence (SEQ ID 1). These populations were sprayed with herbicide V and VI at rates of 200 and 500 g/ha. Plants were assessed for damage and scored at 14 days after treatment (DAT). The results are depicted in Table 19 and also in FIG. 6.

[4] = 1 kg/ha, events 7937, 7940, 7952, 8039, 8071, 8106 expressing SEQ ID NOs 16 and 17, data not shown

Structure (SMILES) | tolerance [1, 4] | tolerance compared with w/t and SEQ ID NO: 1 plants [1] | integrated peak area of beta-glucoside product [2] | tolerance [3, 4] | tolerance compared with w/t and SEQ ID NO: 1 plants [3] | integrated peak area of glucoside product ([2]; LC/MS assay run for 30 min, N-terminally his tagged)
CON1C(=O)N(c2cc(C(F)(F)F)ccn2)C(O)[C@@H]1C (stereo partly shown) [Compound VI] | substantially fully tolerant | much superior tolerance | 8.08E+06 and 7.57E+06 and 8.81E+06 and 7.78E+06 | substantially fully tolerant | much superior tolerance | 
CN1CC(O)N(c2cc(C(F)(F)F)c(Cl)cn2)C1=O (stereo not shown) [XI] |  |  | 1.90E+04 and 2.36E+04 and 1.84E+04 |  |  | 
CN1CC(O)N(c2cc(C(F)(F)F)ccn2)C1=O (stereo not shown) [Compound V] |  | much superior tolerance | 2.52E+06 and 2.97E+06 |  | much superior tolerance | 1.5E6 units
